According to patent US9610319B2, “Method of treating cancer” (Research Foundation of the City University of New York, priority 2014, dated 2017):
Bridge positions count the residues as written; N and C are the ends. Ends that are not written are not given here.

How the values were obtained:
[1] = test system: Nereis virens (polychaete worms); assay: Bioactivity assay on polychaete worms; type: in vivo
Method: To determine if synthetic Tv1 is biologically active, the peptide was injected into polychaete worms, which are the natural prey of terebrid snails. […] Inhibition of nicotinic receptors at the neuromuscular junction can result in paralysis.
Nereis virens (polychaete worms) (less than 3.5 g) were maintained at 4° C. in salt water prior to injection. Worms were laid on a Styrofoam block and injected with an insulin syringe. A modified needle cap was used to maintain a consistent 1.5 mm depth of needle puncture. Worms were injected between the 5th and 7th segments on the ventral anterior end with the aim of targeting the ventral nerve cord. Control worms were injected with 12 μl of 0.9% normal saline solution (NSS). Lyopholized samples of Tv1 toxin were resuspended in NSS and diluted to a concentration of 20 μM which was confirmed using a ThermoScientific Nanodrop 2000c spectrophotometer. At least three worms were used for each trial—one saline control and two injected with Tv1 toxin for a total of three trials. After injection, the worms were transferred to side-by-side containers filled with room temperature salt water. The worm movements were then recorded by video in order to evaluate the effects of the toxin over a period of at least 3.5 hours. Varying temperature elicits different phenotypic responses from N. virens: water at 4° C. has an anesthetizing effect, while room temperature prompts a vigorous response. Taking the worms from 4° C. water and immersing them in room temperature water (25° C.) immediately after injection stimulates an active response from the worms, making it easier to recognize paralytic (or partially paralytic) effects induced by a novel toxin in the first minutes after injection. Worms were observed every other day for two weeks after injection. […] Each video was analyzed and annotated […] by each observer. Observations for each worm began at the time of injection. The numerical results of the two independent viewings were averaged together if results were similar, if two viewers disagreed, a third observer was employed to review the disputed section of video. Results of relative activity vs. time were plotted to quantify the phenotypic effects of the toxin and saline injection on N. virens.

BNL.1MEA.7.R.1 cells = assay: Mouse tumor study: BNL.1MEA.7.R.1 cells injected into right leg, intraperitoneal Tv1; type: in vivo, Balb/c female mice
Method: Balb/c female mice (20-35 g) were used for mouse studies. Animals were maintained on standard animal diet, in a controlled room (22±1° C. @ 35-50% RH) for a week prior to experiments. Animals were randomly divided into three groups: negative control (only PBS), high-dose and low-dose ZCD groups. Each group had five mice under sterile condition. On the day nine, the BNL.1MEA.7.R.1 cells (5 million) were injected into the right leg of each animal and allowed the tumors to grow. After two weeks the animals were checked for tumor growth and the sizes of tumors were recorded using calipers. The treatment was started after finding tumors in all groups.
The concentration of the Tv1 formulations was prepared at 0.08 mg/kg body weight (low dose) and 0.80 mg/kg body weight (high dose) for the intraperitoneal injections. Control group of animals received PBS. The drug administrations were continued for seven days and then further after a five day interval treatment was continued for another eight days and tumor sizes were measured every day.
In the high-dose group, the tumor volumes were 286.08±39.9 mm^3 at the beginning of the treatment and were 434.28±286 mm^3 after the last day which is an increase of only 52%.

[2] = test system: cell lines IMEA7 and BNL.CL2; assay: In vitro cell viability, immunoblotting and wound healing assays on liver cancer cells; type: cell-based
Method: A novel teretoxin, Tv1 (TR(I/L)[…] (SEQ ID NO: 1)) from a terebrid snail, terebrid variegata was structurally identified and found to be biologically active. […] Tv1 was analyzed in cell viability, immunoblotting, and wound healing assays to characterize its function on liver cancer cells. […] Structural characterization of Terebra variegata peptide toxin Tv1 was accomplished using a total venom sample of 4 ng, an amount that would previously make characterization of venom components almost impossible.

TRICCGCYWNGSKDVCSQSCC (disulfide 7-16, 4-20, 5-21; listed as Terebra variegata) [Tv1 (Ile), Tv1 peptide with Ile at the third position]
phenotypic effect of injection into worms ([1]; injections of 20 μM): partial paralysis

TR(I/L)CCGCYWNGSKDVCSQSCC [Tv1, novel teretoxin from terebrid snail Terebra variegata, chemically synthesized; Ile or Leu at position 3]
effect on growth of tumor (BNL.1MEA.7.R.1 cells; both low and high doses): effective in significantly decreasing the growth of tumor
tumor volume after the last day (BNL.1MEA.7.R.1 cells; high dose 0.80 mg/kg body weight, intraperitoneal, after the last day): 434.28±286 mm^3
tumor volume at the beginning of the treatment (BNL.1MEA.7.R.1 cells; high dose 0.80 mg/kg body weight, intraperitoneal, beginning of treatment): 286.08±39.9 mm^3
increase of tumor volume (BNL.1MEA.7.R.1 cells; high dose 0.80 mg/kg, beginning to last day (negative control 418%)): 52%
average tumor volume at the beginning of the treatment (BNL.1MEA.7.R.1 cells; low dose 0.08 mg/kg body weight, intraperitoneal, day one): 180±36.74 mm^3
average tumor volume at the end of treatment (BNL.1MEA.7.R.1 cells; low dose 0.08 mg/kg body weight, intraperitoneal, end of treatment): 485±175.07 mm^3
increase of average tumor volume (BNL.1MEA.7.R.1 cells; low dose 0.08 mg/kg, day one to end of treatment (negative control 418%)): 170%
selectivity tumor cell versus normal cells in vivo (BNL.1MEA.7.R.1 cells; mice models expressing IMEA7 tumor cells subcutaneously): selectively targets tumor cell versus normal cells
body weights throughout the treatment period (BNL.1MEA.7.R.1 cells; monitored throughout treatment): not significantly changed
% Time spent, activity at 0 ([1]; 20 μM injected, activity at 0): 0.995%
% Time spent, activity between 0 and 1 ([1]; 20 μM injected, activity between 0 and 1): 74.47%
% Time spent, activity between 1 and 2 ([1]; 20 μM injected, activity between 1 and 2): 19.98%
% Time spent, activity between 2 and 3 ([1]; 20 μM injected, activity between 2 and 3): 4.55%
selectivity tumor cell versus normal cells in vitro ([2]; cell lines IMEA7 and BNL.CL2): selectively targets tumor cell versus normal cells
death of normal versus cancer cells compared to sorafenib and doxorubicin ([2]; cell viability, immunoblotting, wound healing assays): prevented the death of normal versus cancer cells at high instance
